Data as given in US7534421B2, “s-Triazine compounds bearing at least one para-aminobenzalmalonic salt substituent and photoprotective cosmetic compositions comprised thereof” (L'Oreal, priority 2003, dated 2009).
Structures can show the parent of a compound that is named as a salt.

Experiment: UV absorption spectrum (λmax, εmax, E1%) of the s-triazine UV screens in solution
Format: physicochemical

E1% (UV (water))	εmax (UV (water))	λmax (UV (water))	SMILES	also measured
			O=C(O)C(=Cc1ccc(Nc2nc(O)nc(Nc3ccc(C=C(C(=O)O)C(=O)O)cc3)n2)cc1)C(=O)O [2-(4-{4-[4-(2,2-dicarboxyvinyl)phenylamino]-6-hydroxy[1,3,5]triazin-2-ylamino}benzylidene)malonic acid]	E1% (UV (DMSO/ethanol)): E1% = 691; εmax (UV (DMSO/ethanol)): εmax = 35 070; λmax (UV (DMSO/ethanol)): λmax = 336 nm
			O=C(O)C(=Cc1ccc(Nc2nc(Cl)nc(Nc3ccc(C=C(C(=O)O)C(=O)O)cc3)n2)cc1)C(=O)O [2-(4-{4-chloro-6-[4-(2,2-dicarboxy-vinyl)phenylamino][1,3,5]triazin-2-ylamino}benzylidene)malonic acid]	E1% (UV (NaOH 0.1 N)): E1% = 932; εmax (UV (NaOH 0.1 N)): εmax = 64 960; λmax (UV (NaOH 0.1 N)): λmax = 320 nm
E1% = 1 043	εmax = 86 428	λmax = 323 nm	O=C(O)C(=Cc1ccc(Nc2nc(Nc3ccc(C=C(C(=O)O)C(=O)O)cc3)nc(Nc3ccc(C=C(C(=O)O)C(=O)O)cc3)n2)cc1)C(=O)O [Example 1, hexasodium salt of 2-(4-{4,6-bis[4-(2,2-dicarboxyvinyl)phenylamino][1,3,5]triazin-2-ylamino}benzylidene)malonic acid]	
E1% = 1 060	εmax = 87 820	λmax = 323 nm	O=C(O)C(=Cc1ccc(Nc2nc(Nc3ccc(C=C(C(=O)O)C(=O)O)cc3)nc(Nc3ccc(C=C(C(=O)O)C(=O)O)cc3)n2)cc1)C(=O)O [Example 2, hexasodium salt of 2-(4-{4,6-bis[4-(2,2-dicarboxyvinyl)phenylamino][1,3,5]triazin-2-ylamino}benzylidene)malonic acid]	
E1% = 720	εmax = 66 600	λmax = 324 nm	O=C(O)C(=Cc1ccc(Nc2nc(Nc3ccc(C=C(C(=O)O)C(=O)O)cc3)nc(Nc3ccc(C=C(C(=O)O)C(=O)O)cc3)n2)cc1)C(=O)O [Example 3, hexapotassium salt of 2-(4-{4,6-bis[4-(2,2-dicarboxyvinyl)phenylamino][1,3,5]triazin-2-ylamino}benzylidene)malonic acid]	
E1% = 523	εmax = 83 250	λmax = 322 nm	O=C(O)C(=Cc1ccc(Nc2nc(Nc3ccc(C=C(C(=O)O)C(=O)O)cc3)nc(Nc3ccc(C=C(C(=O)O)C(=O)O)cc3)n2)cc1)C(=O)O [Example 4, hexatriethanolamine salt of 2-(4-{4,6-bis[4-(2,2-dicarboxyvinyl)phenylamino][1,3,5]triazin-2-ylamino}benzylidene)malonic acid]	
			O=C(O)C(=Cc1ccc(Nc2nc(O)nc(Nc3ccc(C=C(C(=O)O)C(=O)O)cc3)n2)cc1)C(=O)O [Example 5, tetrasodium salt of 2-(4-{4-[4-(2,2-dicarboxyvinyl)phenylamino]-6-hydroxy[1,3,5]triazin-2-ylamino}benzylidene)malonic acid]	E1% (UV (NaOH 0.1 N)): E1% = 852; εmax (UV (NaOH 0.1 N)): εmax = 50 700; λmax (UV (NaOH 0.1 N)): λmax = 322 nm
E1% = 768	εmax = 45 900	λmax = 318 nm	COc1ccc(-c2nc(Nc3ccc(C=C(C(=O)O)C(=O)O)cc3)nc(Nc3ccc(C=C(C(=O)O)C(=O)O)cc3)n2)cc1 [Example 6, tetrasodium salt of 2-{4-[4-[4-(2,2-dicarboxyvinyl)phenylamino]-6-(4-methoxyphenyl)[1,3,5]triazin-2-ylamino]benzylidene}malonic acid]	
E1% = 1 274	εmax = 83 070	λmax = 327 nm	O=C(O)/C=C/c1ccc(Nc2nc(Nc3ccc(C=C(C(=O)O)C(=O)O)cc3)nc(Nc3ccc(C=C(C(=O)O)C(=O)O)cc3)n2)cc1 [Example 9, pentasodium salt of 2-(4-{4-[4-(2-carboxyvinyl)phenylamino]-6-[4-(2,2-dicarboxy-vinyl)phenylamino][1,3,5]triazin-2-ylamino}benzylidene)malonic acid]	
E1% = 963	εmax = 69 210	λmax = 329 nm	CC12CCC(/C(=C\c3ccc(Nc4nc(Nc5ccc(C=C(C(=O)O)C(=O)O)cc5)nc(Nc5ccc(C=C(C(=O)O)C(=O)O)cc5)n4)cc3)C1=O)C2(C)C (stereo not drawn) [Example 10, tetrasodium salt of 2-(4-{4-[4-(2-dicarboxyvinyl)phenylamino]-6-[4-(4,7,7-trimethyl-3-oxobicyclo[2.2.1]hept-2-ylidenemethyl)phenylamino][1,3,5]triazin-2-ylamino}benzylidene)malonic acid]	
E1% = 1 238	εmax = 98 170	λmax = 353 nm	CC12CCC(/C(=C\c3ccc(Nc4nc(Nc5ccc(C=C(C(=O)O)C(=O)O)cc5)nc(Nc5ccc(/C=C6/C(=O)C7(C)CCC6C7(C)C)cc5)n4)cc3)C1=O)C2(C)C [Example 11, disodium salt of 2-(4-{[4,6-bis({4-(4,7,7-trimethyl-3-oxobicyclo[2.2.1]hept-2-ylidene)methyl]phenyl}amino)[1,3,5]triazin-2-ylamino}benzylidene)malonic acid]	
			O=C(O)C(=Cc1ccc(Nc2nc(Nc3ccc(C=C(C(=O)O)C(=O)O)cc3)nc(Nc3ccc(C=C(C(=O)O)C(=O)O)cc3)n2)cc1)C(=O)O [acid derivative of Example 1, 2-(4-[4,6-bis[4-(2,2-dicarboxyvinyl)phenylamino][1,3,5]triazin-2-ylamino}benzylidene)malonic acid]	E1% (UV (ethanol)): E1% = 930; εmax (UV (ethanol)): εmax = 64 820; λmax (UV (ethanol)): λmax = 348 nm

SMILES	E1% (UV (water))	εmax (UV (water))	λmax (UV (water))	also measured
CCCCOc1nc(Nc2ccc(C=C(C(=O)O)C(=O)O)cc2)nc(Nc2ccc(C=C(C(=O)O)C(=O)O)cc2)n1 [Example 7, tetrasodium salt of 2-(4-{4-butoxy-6-[4-(2,2-dicarboxyvinyl)phenylamino][1,3,5]triazin-2-ylamino}benzylidene)malonic acid]	E1% = 922	εmax = 51 960	λmax = 317 nm	
